{
  "source": "ChEMBL document CHEMBL1128364",
  "about": "(J Med Chem, 1995)",
  "key": {"[1]": {"molecular_target": "Vasopressin V1a receptor (Rattus norvegicus, UniProt P30560)", "sequence (P30560 whole entry)": "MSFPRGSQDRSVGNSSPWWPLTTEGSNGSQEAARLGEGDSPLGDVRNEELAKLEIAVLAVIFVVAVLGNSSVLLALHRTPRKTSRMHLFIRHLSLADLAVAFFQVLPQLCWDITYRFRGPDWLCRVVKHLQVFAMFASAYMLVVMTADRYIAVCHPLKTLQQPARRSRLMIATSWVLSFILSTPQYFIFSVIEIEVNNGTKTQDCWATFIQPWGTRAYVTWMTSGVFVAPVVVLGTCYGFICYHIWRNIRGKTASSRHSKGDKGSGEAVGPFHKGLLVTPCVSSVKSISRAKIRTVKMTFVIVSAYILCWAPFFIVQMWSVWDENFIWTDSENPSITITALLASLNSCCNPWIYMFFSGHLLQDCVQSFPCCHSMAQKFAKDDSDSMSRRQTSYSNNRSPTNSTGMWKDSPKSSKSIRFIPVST", "assay": "(§1) Anti-vasopressor activity at V1a receptor", "details": "read-out: pA2 (converted)"}, "[2]": {"system": "Rattus norvegicus", "assay": "(§2) In vivo activity for the anti-oxytocic activity.", "type": "functional, organism-based", "details": "read-out: pA2 (converted)"}, "[3]": {"system": "Rattus norvegicus", "assay": "In vivo anti-oxytocic activity was determined.", "type": "functional"}, "[4]": {"molecular_target": "Vasopressin V1a receptor (Rattus norvegicus) (UniProt P30560)", "sequence (P30560 whole entry, looked up)": "as the sequence (P30560 whole entry) above", "assay": "as §1"}, "[5]": {"molecular_target": "Vasopressin V2 receptor (Rattus norvegicus, UniProt Q00788)", "sequence (Q00788 whole entry)": "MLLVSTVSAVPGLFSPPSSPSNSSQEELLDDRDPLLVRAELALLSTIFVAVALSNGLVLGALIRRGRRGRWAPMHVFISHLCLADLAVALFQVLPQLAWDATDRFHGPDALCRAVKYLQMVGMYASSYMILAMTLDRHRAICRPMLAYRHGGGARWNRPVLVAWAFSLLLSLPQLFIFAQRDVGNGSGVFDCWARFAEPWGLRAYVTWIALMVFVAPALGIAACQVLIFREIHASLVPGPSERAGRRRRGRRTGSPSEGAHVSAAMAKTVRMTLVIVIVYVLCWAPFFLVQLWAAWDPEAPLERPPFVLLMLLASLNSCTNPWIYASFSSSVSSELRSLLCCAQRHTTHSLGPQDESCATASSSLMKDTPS", "assay": "(§3) Antidiuretic activity at V2 receptor", "type": "tissue-based, Urine", "details": "read-out: pA2 (converted)"}, "[6]": {"molecular_target": "Vasopressin V2 receptor (Rattus norvegicus) (UniProt Q00788)", "sequence (Q00788 whole entry)": "as above", "assay": "as §3", "type": "tissue-based", "details": "Urine"}, "[7]": {"molecular_target": "T1, Oxytocin receptor (Rattus norvegicus, UniProt P70536)", "T1 sequence (P70536 whole entry)": "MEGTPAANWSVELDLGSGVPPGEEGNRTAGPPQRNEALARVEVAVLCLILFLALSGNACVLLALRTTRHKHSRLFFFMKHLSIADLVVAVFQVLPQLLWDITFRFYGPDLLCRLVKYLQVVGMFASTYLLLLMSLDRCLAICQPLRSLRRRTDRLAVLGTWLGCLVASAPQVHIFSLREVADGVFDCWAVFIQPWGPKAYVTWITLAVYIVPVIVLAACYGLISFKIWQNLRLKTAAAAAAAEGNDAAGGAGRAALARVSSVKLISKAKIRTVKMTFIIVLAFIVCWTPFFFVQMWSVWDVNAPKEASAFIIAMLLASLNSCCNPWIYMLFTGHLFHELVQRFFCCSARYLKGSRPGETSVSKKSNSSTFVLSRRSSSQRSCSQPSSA", "assay": "In vitro anti-oxytocic activity with 0.5 mM Mg2+.", "details": "read-out: pA2 (converted)"}, "[8]": {"molecular_target": "T1, Oxytocin receptor", "assay": "In vitro antioxycic activity with out Mg2+.", "details": "read-out: pA2 (converted)"}, "[9]": {"system": "Rattus norvegicus", "assay": "as §2", "type": "functional"}, "[10]": {"molecular_target": "Vasopressin V2 receptor (Rattus norvegicus) (UniProt Q00788)", "assay": "Antidiuretic activity at V2 receptor.", "details": "Urine"}, "[11]": {"molecular_target": "T2, Oxytocin receptor (Rattus norvegicus) (UniProt P70536)", "T2 sequence (whole entry)": "T1 sequence (P70536 whole entry)", "assay": "Compound was evaluated for the oxytocic activity with 0.5 mM Mg2+."}},
  "data": [
    {"compound": "CCOc1ccc(C[C@H]2NC(=O)CC3(CCCCC3)SSC[C@H](C(=O)N3CCC[C@H]3C(=O)N[C@@H](CCCN=C(N)N)C(=O)NCC(N)=O)NC(=O)[C@H](CC(N)=O)NC(=O)[C@H](C(C)C)NC(=O)[C@H](Cc3ccccc3)NC2=O)cc1", "note": "[listing 1 of 2 here]", "values": [
      {"measurement": "Kb", "setting": "[1]", "value": 8.71, "unit": "nM"},
      {"measurement": "Kb", "setting": "[2]", "value": 69.2, "unit": "nM"}
    ]},
    {"compound": "CC[C@H](C)[C@@H]1NC(=O)[C@H](Cc2ccc(OC)cc2)NC(=O)CC2(CCCCC2)SSC[C@H](C(=O)N2CCC[C@H]2C(=O)N[C@@H](CCCN)C(=O)O)NC(=O)[C@H](CC(N)=O)NC(=O)[C@H]([C@@H](C)O)NC1=O", "values": [
      {"measurement": "ED", "setting": "[3]", "value": 9.24, "unit": "nM/kg"}
    ]},
    {"compound": "CC(C)[C@@H]1NC(=O)[C@H](Cc2ccccc2)NC(=O)[C@@H](Cc2ccccc2)NC(=O)CC2(CCCCC2)SSC[C@H](C(=O)N2CCC[C@H]2C(=O)N[C@@H](CCCN=C(N)N)C(=O)NCC(N)=O)NC(=O)[C@H](CC(N)=O)NC1=O", "values": [
      {"measurement": "ED", "setting": "[4]", "value": 1.9, "unit": "nM/kg"},
      {"measurement": "Kb", "setting": "[5]", "value": 56.2, "unit": "nM"},
      {"measurement": "Kb", "setting": "[1]", "value": 27.5, "unit": "nM"},
      {"measurement": "ED", "setting": "[6]", "value": 3.9, "unit": "nM/kg"}
    ]},
    {"compound": "CC[C@H](C)[C@@H]1NC(=O)[C@H](Cc2ccc(OC)cc2)NC(=O)CC2(CCCCC2)SSC[C@@H](C(=O)N2CCC[C@H]2C(=O)N[C@@H](CCCN)C(=O)NCC(N)=O)NC(=O)[C@H](CC(N)=O)NC(=O)[C@H](CCC(N)=O)NC1=O", "values": [
      {"measurement": "ED", "setting": "[4]", "value": 0.8, "unit": "nM/kg"},
      {"measurement": "Kb", "setting": "[1]", "value": 11, "unit": "nM"},
      {"measurement": "Kb", "setting": "[7]", "value": 13.2, "unit": "nM"},
      {"measurement": "Antidiuretic activity", "setting": "[6]", "value": 0.01, "unit": "U mg-1"},
      {"measurement": "Kb", "setting": "[8]", "value": 3.02, "unit": "nM"}
    ]},
    {"compound": "CC[C@H](C)[C@@H]1NC(=O)[C@H](Cc2cc3ccccc3[nH]2)NC(=O)CC2(CCCCC2)SSC[C@H](C(=O)N2CCC[C@H]2C(=O)N[C@@H](CCCN=C(N)N)C(=O)NCC(N)=O)NC(=O)[C@H](CC(N)=O)NC(=O)[C@H](CCC(N)=O)NC1=O", "values": [
      {"measurement": "ED", "setting": "[4]", "value": 2, "unit": "nM/kg"}
    ]},
    {"compound": "CC(C)[C@@H]1NC(=O)[C@@H](Cc2ccccc2)NC(=O)[C@@H](Cc2ccccc2)NC(=O)CC2(CCCCC2)SSC[C@@H](C(=O)N2CCC[C@H]2C(=O)N[C@@H](CCCN=C(N)N)C(=O)NCC(N)=O)NC(=O)[C@@H](CC(N)=O)NC1=O", "values": [
      {"measurement": "ED", "setting": "[4]", "value": 0.58, "unit": "nM/kg"},
      {"measurement": "ED", "setting": "[6]", "value": 0.67, "unit": "nM/kg"}
    ]},
    {"compound": "CC[C@H](C)[C@@H]1NC(=O)[C@@H](Cc2c[nH]c3ccccc23)NC(=O)CC2(CCCCC2)SSC[C@@H](C(=O)N2CCC[C@H]2C(=O)N[C@@H](CCCN)C(=O)NCC(N)=O)NC(=O)[C@H](CC(N)=O)NC(=O)[C@H]([C@@H](C)O)NC1=O", "values": [
      {"measurement": "ED", "setting": "[3]", "value": 3.08, "unit": "nM/kg"}
    ]},
    {"compound": "COc1ccc(C[C@@H]2NC(=O)CC3(CCCCC3)SSC[C@H](C(=O)N3CCC[C@H]3C(=O)N[C@@H](CCCN=C(N)N)C(=O)NCC(N)=O)NC(=O)[C@H](CC(N)=O)NC(=O)[C@H](CCC(N)=O)NC(=O)[C@H](Cc3ccccc3)NC2=O)cc1", "values": [
      {"measurement": "ED", "setting": "[9]", "value": 17, "unit": "nM/kg"}
    ]},
    {"compound": "CCOc1ccc(C[C@H]2NC(=O)CC3(CCCCC3)SSC[C@@H](C(=O)N3CCC[C@H]3C(=O)N[C@@H](CCCN=C(N)N)C(=O)NCC(N)=O)NC(=O)[C@H](CC(N)=O)NC(=O)[C@H](C(C)C)NC(=O)[C@H](Cc3ccccc3)NC2=O)cc1", "values": [
      {"measurement": "ED", "setting": "[4]", "value": 0.45, "unit": "nM/kg"},
      {"measurement": "Kb", "setting": "[1]", "value": 6.03, "unit": "nM"},
      {"measurement": "ED", "setting": "[6]", "value": 1.1, "unit": "nM/kg"}
    ]},
    {"compound": "CC[C@H](C)[C@@H]1NC(=O)[C@H](Cc2ccc(O)cc2)N(C)C(=O)CC2(CCCCC2)SSC[C@H](C(=O)N2CCC[C@H]2C(=O)N[C@@H](CCCN)C(=O)NCC(N)=O)NC(=O)[C@H](CC(N)=O)NC(=O)[C@H](CCC(N)=O)NC1=O", "values": [
      {"measurement": "ED", "setting": "[4]", "value": 3.73, "unit": "nM/kg"}
    ]},
    {"compound": "CC[C@H](C)[C@@H]1NC(=O)[C@@H](Cc2cc3ccccc3[nH]2)NC(=O)CC2(CCCCC2)SSC[C@@H](C(=O)N2CCC[C@H]2C(=O)N[C@@H](CCCN=C(N)N)C(=O)NCC(N)=O)NC(=O)[C@H](CC(N)=O)NC(=O)[C@H](CCC(N)=O)NC1=O", "values": [
      {"measurement": "ED", "setting": "[4]", "value": 2, "unit": "nM/kg"}
    ]},
    {"compound": "NC(=O)CC[C@@H]1NC(=O)[C@H](Cc2ccccc2)NC(=O)[C@H](Cc2ccc(O)cc2)NC(=O)[C@H](N)CSSC[C@H](C(=O)N2CCC[C@H]2C(=O)N[C@@H](CCCN=C(N)N)C(=O)NCC(N)=O)NC(=O)[C@H](CC(N)=O)NC1=O", "values": [
      {"measurement": "Antidiuretic activity", "setting": "[10]", "value": 0.82, "unit": "U mg-1"}
    ]},
    {"compound": "N=C(N)NCCC[C@H](NC(=O)[C@@H]1CCCN1C(=O)[C@@H]1CSSC[C@H](N)C(=O)N[C@@H](Cc2ccc(O)cc2)C(=O)N[C@@H](Cc2ccccc2)C(=O)N[C@@H](CCC(N)=O)C(=O)N[C@@H](CC(N)=O)C(=O)N1)C(=O)NCC(N)=O", "values": [
      {"measurement": "Oxytocic activity", "setting": "[11]", "value": 25.5, "unit": "U mg-1"},
      {"measurement": "Antidiuretic activity", "setting": "[10]", "value": 323, "unit": "U mg-1"}
    ]},
    {"compound": "CCOc1ccc(C[C@H]2NC(=O)CC3(CCCCC3)SSC[C@H](C(=O)N3CCC[C@H]3C(=O)N[C@@H](CCCN=C(N)N)C(=O)NCC(N)=O)NC(=O)[C@H](CC(N)=O)NC(=O)[C@H](C(C)C)NC(=O)[C@H](Cc3ccccc3)NC2=O)cc1", "note": "[listing 2 of 2 here]", "values": [
      {"measurement": "ED", "setting": "[9]", "value": 4.8, "unit": "nM/kg"}
    ]}
  ]
}
